{
  "source": "patent US10548837B1",
  "about": "“Topical montelukast for treatment of atopic dermatitis” (TARO PHARMACEUTICAL INDUSTRIES LTD., priority 2016, dated 2020)",
  "origin": "cited, not measured here",
  "biological_target": "T1, cysLT1 receptor (Homo sapiens, UniProt Q9Y271)",
  "T1 sequence (Q9Y271 1-337)": "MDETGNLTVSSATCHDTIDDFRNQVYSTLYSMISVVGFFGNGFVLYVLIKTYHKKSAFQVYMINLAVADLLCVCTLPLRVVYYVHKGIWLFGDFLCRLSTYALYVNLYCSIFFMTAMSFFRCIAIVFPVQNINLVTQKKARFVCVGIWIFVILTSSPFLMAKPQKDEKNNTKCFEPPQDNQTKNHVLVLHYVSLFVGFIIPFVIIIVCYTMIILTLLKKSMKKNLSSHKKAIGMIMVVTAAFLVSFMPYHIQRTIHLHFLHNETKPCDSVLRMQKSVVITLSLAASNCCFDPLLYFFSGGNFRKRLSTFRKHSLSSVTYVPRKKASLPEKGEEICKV",
  "settings": "background statement",
  "data": [
    {"smiles": "COc1cc(C(=O)NS(=O)(=O)c2ccccc2C)ccc1Cc1cn(C)c2ccc(NC(=O)OC3CCCC3)cc12", "note": "[zafirlukast]", "values": [
      {"measurement": "binding to the cysLT1 receptor", "value": "high-affinity binding"}
    ]}
  ]
}
